What was measured:
B16-F10 tumors = assay: B16-F10 tumor model in vivo; conditions: athymic mice, 25 mg/kg three times weekly, vs methotrexate and sham
K-562 = assay: NCI In-Vitro Testing, Leukemia; assay type: cell-based
RPMI-8226 = assay: NCI In-Vitro Testing, Leukemia; assay type: cell-based
SR = assay: NCI In-Vitro Testing, Leukemia; assay type: cell-based
EKVX = assay: NCI In-Vitro Testing, Non-Small Cell Lung Cancer; assay type: cell-based
HOP-52 = assay: NCI In-Vitro Testing, Non-Small Cell Lung Cancer; assay type: cell-based
NCI-H23 = assay: NCI In-Vitro Testing, Non-Small Cell Lung Cancer; assay type: cell-based
KM12 = assay: NCI In-Vitro Testing, Colon Cancer; assay type: cell-based
SW-620 = assay: NCI In-Vitro Testing, Colon Cancer; assay type: cell-based
SNB-75 = assay: NCI In-Vitro Testing, CNS Cancer; assay type: cell-based
SK-MEL-2 = assay: NCI In-Vitro Testing, Melanoma; assay type: cell-based
SK-MEL-5 = assay: NCI In-Vitro Testing, Melanoma; assay type: cell-based
OVCAR-3 = assay: NCI In-Vitro Testing, Ovarian Cancer; assay type: cell-based
OVCAR-4 = assay: NCI In-Vitro Testing, Ovarian Cancer; assay type: cell-based
OVCAR-5 = assay: NCI In-Vitro Testing, Ovarian Cancer; assay type: cell-based
TK-10 = assay: NCI In-Vitro Testing, Renal Cancer; assay type: cell-based
UO-31 = assay: NCI In-Vitro Testing, Renal Cancer; assay type: cell-based
HS 576T = assay: NCI In-Vitro Testing, Breast Cancer; assay type: cell-based
BT-549 = assay: NCI In-Vitro Testing, Breast Cancer; assay type: cell-based

Compound: Nc1nc2c(c(Nc3ccc(Cl)cc3)n1)-c1ccccc1C2 [AAG145-136]
- antitumor activity (tumor volume, tumor growth rate) (B16-F10 tumors): potent antitumor activity
- GI50 (K-562): 3.56E−7 Molar
- LC50 (K-562): >1.00E−4 Molar
- TGI (K-562): >1.00E−4 Molar
- Percent Growth (K-562; Log10 Concentration −4.0 Molar): 26%
- Percent Growth (K-562; Log10 Concentration −5.0 Molar): 16%
- Percent Growth (K-562; Log10 Concentration −6.0 Molar): 20%
- Percent Growth (K-562; Log10 Concentration −7.0 Molar): 89%
- Percent Growth (K-562; Log10 Concentration −8.0 Molar): 103%
- GI50 (RPMI-8226): 4.89E−7 Molar
- LC50 (RPMI-8226): >1.00E−4 Molar
- TGI (RPMI-8226): >1.00E−4 Molar
- Percent Growth (RPMI-8226; Log10 Concentration −4.0 Molar): 7%
- Percent Growth (RPMI-8226; Log10 Concentration −5.0 Molar): 11%
- Percent Growth (RPMI-8226; Log10 Concentration −6.0 Molar): 32%
- Percent Growth (RPMI-8226; Log10 Concentration −7.0 Molar): 89%
- Percent Growth (RPMI-8226; Log10 Concentration −8.0 Molar): 96%
- GI50 (SR): 4.84E−8 Molar
- LC50 (SR): >1.00E−4 Molar
- TGI (SR): >1.00E−4 Molar
- Percent Growth (SR; Log10 Concentration −4.0 Molar): 2%
- Percent Growth (SR; Log10 Concentration −5.0 Molar): 12%
- Percent Growth (SR; Log10 Concentration −6.0 Molar): 22%
- Percent Growth (SR; Log10 Concentration −7.0 Molar): 41%
- Percent Growth (SR; Log10 Concentration −8.0 Molar): 70%
- GI50 (EKVX): 2.71E−8 Molar
- LC50 (EKVX): >1.00E−4 Molar
- TGI (EKVX): >1.00E−4 Molar
- Percent Growth (EKVX; Log10 Concentration −4.0 Molar): 4%
- Percent Growth (EKVX; Log10 Concentration −5.0 Molar): 26%
- Percent Growth (EKVX; Log10 Concentration −6.0 Molar): 68%
- Percent Growth (EKVX; Log10 Concentration −7.0 Molar): 68%
- Percent Growth (EKVX; Log10 Concentration −8.0 Molar): 101%
- GI50 (HOP-52): 6.54E−7 Molar
- LC50 (HOP-52): >1.00E−4 Molar
- TGI (HOP-52): >1.00E−4 Molar
- Percent Growth (HOP-52; Log10 Concentration −4.0 Molar): 32%
- Percent Growth (HOP-52; Log10 Concentration −5.0 Molar): 25%
- Percent Growth (HOP-52; Log10 Concentration −6.0 Molar): 40%
- Percent Growth (HOP-52; Log10 Concentration −7.0 Molar): 94%
- Percent Growth (HOP-52; Log10 Concentration −8.0 Molar): 97%
- GI50 (NCI-H23): 5.55E−7 Molar
- LC50 (NCI-H23): >1.00E−4 Molar
- TGI (NCI-H23): >1.00E−4 Molar
- Percent Growth (NCI-H23; Log10 Concentration −4.0 Molar): 16%
- Percent Growth (NCI-H23; Log10 Concentration −5.0 Molar): 21%
- Percent Growth (NCI-H23; Log10 Concentration −6.0 Molar): 37%
- Percent Growth (NCI-H23; Log10 Concentration −7.0 Molar): 90%
- Percent Growth (NCI-H23; Log10 Concentration −8.0 Molar): 86%
- GI50 (KM12): 3.30E−7 Molar
- LC50 (KM12): >1.00E−4 Molar
- TGI (KM12): >1.00E−4 Molar
- Percent Growth (KM12; Log10 Concentration −4.0 Molar): 5%
- Percent Growth (KM12; Log10 Concentration −5.0 Molar): 7%
- Percent Growth (KM12; Log10 Concentration −6.0 Molar): 25%
- Percent Growth (KM12; Log10 Concentration −7.0 Molar): 77%
- Percent Growth (KM12; Log10 Concentration −8.0 Molar): 98%
- GI50 (SW-620): 6.30E−8 Molar
- LC50 (SW-620): >1.00E−4 Molar
- TGI (SW-620): >1.00E−4 Molar
- Percent Growth (SW-620; Log10 Concentration −4.0 Molar): 10%
- Percent Growth (SW-620; Log10 Concentration −5.0 Molar): 10%
- Percent Growth (SW-620; Log10 Concentration −6.0 Molar): 15%
- Percent Growth (SW-620; Log10 Concentration −7.0 Molar): 39%
- Percent Growth (SW-620; Log10 Concentration −8.0 Molar): 92%
- GI50 (SNB-75): 5.03E−6 Molar
- LC50 (SNB-75): >1.00E−4 Molar
- TGI (SNB-75): 6.44E−5 Molar
- Percent Growth (SNB-75; Log10 Concentration −4.0 Molar): −10%
- Percent Growth (SNB-75; Log10 Concentration −5.0 Molar): 41%
- Percent Growth (SNB-75; Log10 Concentration −6.0 Molar): 71%
- Percent Growth (SNB-75; Log10 Concentration −7.0 Molar): 92%
- Percent Growth (SNB-75; Log10 Concentration −8.0 Molar): 95%
- GI50 (SK-MEL-2): 5.58E−7 Molar
- LC50 (SK-MEL-2): >1.00E−4 Molar
- TGI (SK-MEL-2): >1.00E−4 Molar
- Percent Growth (SK-MEL-2; Log10 Concentration −4.0 Molar): 16%
- Percent Growth (SK-MEL-2; Log10 Concentration −5.0 Molar): 27%
- Percent Growth (SK-MEL-2; Log10 Concentration −6.0 Molar): 35%
- Percent Growth (SK-MEL-2; Log10 Concentration −7.0 Molar): 95%
- Percent Growth (SK-MEL-2; Log10 Concentration −8.0 Molar): 98%
- GI50 (SK-MEL-5): 5.13E−7 Molar
- LC50 (SK-MEL-5): >1.00E−4 Molar
- TGI (SK-MEL-5): 1.59E−5 Molar
- Percent Growth (SK-MEL-5; Log10 Concentration −4.0 Molar): −45%
- Percent Growth (SK-MEL-5; Log10 Concentration −5.0 Molar): 11%
- Percent Growth (SK-MEL-5; Log10 Concentration −6.0 Molar): 35%
- Percent Growth (SK-MEL-5; Log10 Concentration −7.0 Molar): 87%
- Percent Growth (SK-MEL-5; Log10 Concentration −8.0 Molar): 95%
- GI50 (OVCAR-3): 2.48E−6 Molar
- LC50 (OVCAR-3): >1.00E−4 Molar
- TGI (OVCAR-3): >1.00E−4 Molar
- Percent Growth (OVCAR-3; Log10 Concentration −4.0 Molar): 14%
- Percent Growth (OVCAR-3; Log10 Concentration −5.0 Molar): 22%
- Percent Growth (OVCAR-3; Log10 Concentration −6.0 Molar): 66%
- Percent Growth (OVCAR-3; Log10 Concentration −7.0 Molar): 86%
- Percent Growth (OVCAR-3; Log10 Concentration −8.0 Molar): 91%
- GI50 (OVCAR-4): 4.16E−6 Molar
- LC50 (OVCAR-4): >1.00E−4 Molar
- TGI (OVCAR-4): >1.00E−4 Molar
- Percent Growth (OVCAR-4; Log10 Concentration −4.0 Molar): 19%
- Percent Growth (OVCAR-4; Log10 Concentration −5.0 Molar): 30%
- Percent Growth (OVCAR-4; Log10 Concentration −6.0 Molar): 82%
- Percent Growth (OVCAR-4; Log10 Concentration −7.0 Molar): 84%
- Percent Growth (OVCAR-4; Log10 Concentration −8.0 Molar): 83%
- LC50 (OVCAR-5): >1.00E−4 Molar
- TGI (OVCAR-5): >1.00E−4 Molar
- Percent Growth (OVCAR-5; Log10 Concentration −4.0 Molar): 58%
- Percent Growth (OVCAR-5; Log10 Concentration −5.0 Molar): 47%
- Percent Growth (OVCAR-5; Log10 Concentration −6.0 Molar): 56%
- Percent Growth (OVCAR-5; Log10 Concentration −7.0 Molar): 77%
- Percent Growth (OVCAR-5; Log10 Concentration −8.0 Molar): 96%
- GI50 (TK-10): 2.15E−6 Molar
- LC50 (TK-10): >1.00E−4 Molar
- TGI (TK-10): >1.00E−4 Molar
- Percent Growth (TK-10; Log10 Concentration −4.0 Molar): 27%
- Percent Growth (TK-10; Log10 Concentration −5.0 Molar): 34%
- Percent Growth (TK-10; Log10 Concentration −6.0 Molar): 58%
- Percent Growth (TK-10; Log10 Concentration −7.0 Molar): 113%
- Percent Growth (TK-10; Log10 Concentration −8.0 Molar): 110%
- GI50 (UO-31): 7.90E−7 Molar
- LC50 (UO-31): >1.00E−4 Molar
- TGI (UO-31): >1.00E−4 Molar
- Percent Growth (UO-31; Log10 Concentration −4.0 Molar): 31%
- Percent Growth (UO-31; Log10 Concentration −5.0 Molar): 31%
- Percent Growth (UO-31; Log10 Concentration −6.0 Molar): 46%
- Percent Growth (UO-31; Log10 Concentration −7.0 Molar): 88%
- Percent Growth (UO-31; Log10 Concentration −8.0 Molar): 105%
- GI50 (HS 576T): 2.22E−6 Molar
- LC50 (HS 576T): >1.00E−4 Molar
- TGI (HS 576T): 2.94E−5 Molar
- Percent Growth (HS 576T; Log10 Concentration −4.0 Molar): −13%
- Percent Growth (HS 576T; Log10 Concentration −5.0 Molar): 11%
- Percent Growth (HS 576T; Log10 Concentration −6.0 Molar): 71%
- Percent Growth (HS 576T; Log10 Concentration −7.0 Molar): 97%
- Percent Growth (HS 576T; Log10 Concentration −8.0 Molar): 104%
- GI50 (BT-549): 2.83E−6 Molar
- LC50 (BT-549): >1.00E−4 Molar
- TGI (BT-549): 7.58E−5 Molar
- Percent Growth (BT-549; Log10 Concentration −4.0 Molar): −4%
- Percent Growth (BT-549; Log10 Concentration −5.0 Molar): 32%
- Percent Growth (BT-549; Log10 Concentration −6.0 Molar): 65%
- Percent Growth (BT-549; Log10 Concentration −7.0 Molar): 85%
- Percent Growth (BT-549; Log10 Concentration −8.0 Molar): 103%

Reference: US9422297B2, “Tricyclic compounds having cytostatic and/or cytotoxic activity and methods of use thereof” (Duquesne University of the Holy Ghost, priority 2007, dated 2016)
